Test [1] deals with T1, F876L mutant Androgen Receptor (AR-F876L) (Homo sapiens (Human), UniProt P10275, F877L). In words: LNCaP-AR-F876L ANT reporter assay (antagonist mode). The test is classed as cell-based. (In general: A reporter such as luciferase makes a cellular process visible.)
Test [2] has as its target T1, F876L mutant Androgen Receptor (AR-F876L). Kind of test: LNCaP-AR-F876L AG reporter assay (agonist mode). Format: cell-based.
In another test the test system is LNCaP WT. In words: LNCaP Proliferation Assay (LNCaP WT). Format: cell-based. The settings on record: Homo sapiens, 96 h, 4 days, CellTiter-Glo, normalized to 0.1 nM R1881 stimulation. Here is the method: LNCaP cells were expanded in RPMI 10% FBS in T150 flasks. The cells were dislodged with 0.25% Trypsin, washed in complete media, centrifuged (300 g, 3 min), and the supernatant aspirated. The cells were resuspended in RPMI phenol-red free media with 1% charcoal-stripped serum (CSS) and counted using a ViCELL (Beckman-Coulter). 7500 cells were added to each well of a white optical bottom 384-well plate and incubated for 2 days at 37° C. 5% CO2. Compound dilutions were prepared in RPMI CSS using 50 mM stock solutions and added to the cells either alone (agonist mode) or in combination with 0.1 nM R1881 (antagonist mode). The plates were incubated for 4 days, followed by addition of CellTiter-Glo Luminescent Cell Viability kit reagent (Promega). The plates were placed on a shaker at 3000 rpm for 10 minutes and then read on an EnVision plate reader (Perkin Elmer) using Luminescence assay default settings. The data was analyzed, normalized to 0.1 nM R1881 stimulation, and plotted in GraphPad Prism.
In general terms: In ATP-based viability assays light output follows the ATP content of the culture.

The target in another test is AR L701H (Homo sapiens, UniProt P10275, L702H). In words: Luciferase Transcriptional Reporter Assay, AR L701H (HepG2). Format: cell-based. The protocol: (§1) HepG2 cells were maintained in EMEM supplemented with 10% FBS. One day before transfection, the media was changed to EMEM with 10% CSS. T-150 flasks were transiently transfected using 120 μL Lipofectamine 2000 (Life Technologies), 30 μg mutant cDNA (expression vector)—mutant cDNA tested were L701H, T877A, W741C and H874Y—and 40 μg 4×ARE-Luciferase (reporter vector) in OptiMEM and the flasks were incubated overnight. Cells were then trypsinized, counted and resuspended at 500,000 cells/mL. For agonist mode, the compounds of Formula (I) were serially diluted and 50 μL of the compound was added per well. 50 μL of the cells were added to each well and incubated for 48 hours. For antagonist mode, a final concentration of 90 pM R1881 was added to the diluted compounds and incubated for 48 hours. The plates were then assayed using SteadyGlo and read on the Envision. Percent Stimulation and Inhibition were determined and analyzed using GraphPad Prism.
Chain of AR L701H (P10275 whole entry L702H): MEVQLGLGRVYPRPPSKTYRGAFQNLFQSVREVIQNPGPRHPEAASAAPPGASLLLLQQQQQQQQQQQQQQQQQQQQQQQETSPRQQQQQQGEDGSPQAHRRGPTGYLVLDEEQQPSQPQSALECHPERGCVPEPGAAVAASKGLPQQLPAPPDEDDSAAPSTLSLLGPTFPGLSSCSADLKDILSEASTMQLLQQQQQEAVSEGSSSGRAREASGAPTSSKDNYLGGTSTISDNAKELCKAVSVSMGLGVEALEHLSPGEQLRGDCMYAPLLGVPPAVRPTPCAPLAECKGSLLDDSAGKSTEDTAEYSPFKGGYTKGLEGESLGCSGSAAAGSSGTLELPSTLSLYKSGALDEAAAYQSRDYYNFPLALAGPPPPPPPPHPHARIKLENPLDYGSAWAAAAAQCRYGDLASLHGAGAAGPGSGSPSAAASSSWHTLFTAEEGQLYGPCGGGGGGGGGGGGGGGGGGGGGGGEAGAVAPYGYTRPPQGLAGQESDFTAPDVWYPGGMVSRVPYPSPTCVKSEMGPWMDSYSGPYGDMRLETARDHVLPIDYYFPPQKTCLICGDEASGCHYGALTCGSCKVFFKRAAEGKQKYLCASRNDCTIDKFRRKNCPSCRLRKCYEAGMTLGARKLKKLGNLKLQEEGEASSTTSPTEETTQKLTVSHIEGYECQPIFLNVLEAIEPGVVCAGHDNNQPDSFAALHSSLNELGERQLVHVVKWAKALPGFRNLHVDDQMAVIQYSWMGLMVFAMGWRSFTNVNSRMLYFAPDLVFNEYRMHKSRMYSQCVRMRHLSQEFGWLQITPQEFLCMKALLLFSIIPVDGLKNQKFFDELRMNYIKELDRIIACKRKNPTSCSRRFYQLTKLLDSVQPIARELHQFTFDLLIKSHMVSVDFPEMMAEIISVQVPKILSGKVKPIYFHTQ
(§2) F876L agonism was evident at 3 and 10 μM (5%) but zero at 30 μM. The antagonistic (IC50) and agonistic (EC50) values for each of the AR cDNA used in the reporter assays are summarized. All values are calculated relative to the activity of R1881 induced androgen receptor activity (n≥3). Also indicated are the maximal inhibition and extent of induction of androgen dependent signaling (%).

For the next test, the target named is AR T877A (Homo sapiens (Human), UniProt P10275, T878A). Kind of test: Luciferase Transcriptional Reporter Assay, AR T877A (HepG2). The test is classed as cell-based. Here is the method: as §1, §2
Chain of AR T877A (P10275 whole entry T878A): as the sequence (P10275 whole entry L702H) above, with H702L, T878A counted along it
A further test deals with AR W741C (Homo sapiens (Human), UniProt P10275, W742C). In words: Luciferase Transcriptional Reporter Assay, AR W741C (HepG2). Format: cell-based. The protocol:
as §1, §2

The subject of test [3] is androgen dependent signaling (androgen sensitive organs). In words: Hershberger Assay. The test is classed as in vivo, rat. Here is the method:
The effect of AR antagonists on androgen dependent signaling in vivo was assessed using the Hershberger assay. In this assay, peripubertal castrated male Sprague-Dawley rats were administered AR antagonists described herein in the presence of testosterone (0.4 mg/kg testosterone propionate) and the weights of androgen dependent organs measured. Dosing was continued for 10 days and measurements taken 24 h after the last dose. The extent of antagonism of AR and consequent inhibition of organ growth was evaluated by comparison to the castration control. Compounds of Formula (I) were dosed orally QD and an endpoint assessment made by change in weight of 5 androgen sensitive organs (ASO): Paired Cowper's Glands (CG), Seminal Vesicles with Fluids and Coagulating Glands (SVCG), Glans Penis (GP), Ventral Prostate (VP) and Levator Ani-Bulbocavernosus Complex (LABC)). According to assay guidelines, statistically significant suppression of ASO is required in 2 of 5 organs for a compound to be classified as an anti-androgen (analysis was performed by t-test/Mann-Whitney).
Unless otherwise stated, compounds defined herein were administered at 30 mg/kg and flutamide (FT), positive control, at 3 mg/kg. All compounds were co-administered with testosterone propionate (TP, 0.4 mg/kg) which was also administered alone, untreated control, (castrated only rats served as the control for complete androgen blockade). A statistically significant change in ASO achieved in at least 2 of 5 organs was indicative of an active compound.

Another test concerns LNCaP SRαF876L cells. Kind of test: Castrate Resistant Prostate Cancer Xenograft Study. The test is classed as in vivo, mouse. The following applies: castrate SHO mice. The protocol:
Castrate six to seven week old male SCID Hairless Outbred mice (SHO, Charles Rivers Laboratories) were used as the host strain for xenograft studies. LNCaP SRαF876L cells were cultured as 3-D spheroids and expanded prior to subcutaneous injection on the flank of the animals (supplied post castration). Briefly, 5 mls of cells in media+5 mls of cultrex were premixed prior to plating of 500 μl=2×10^5 cells per well of a 24-well plate. Plates were incubated @ 37° C. for 30 min before addition of complete media on top and returned to incubator for growth of 3-D colonies. After 7 days, media was removed, plates chilled and contents of each well, 500 μl cultrex and cells, injected into flank of a recipient mouse. Tumor volume (length×width2/2) was monitored weekly. When tumors reached an average volume of ˜200 mm^3, animals were randomized into treatment groups. During the treatment period tumor volume was monitored bi-weekly. At study end, tumor growth inhibition (TGI) was calculated: 100−(Treated/Control*100). At the termination of study tumors were collected and stored for further analyses.

Where [4] appears, read: 30 mg/kg orally QD, 10 days, with TP 0.4 mg/kg, castrated rats, mean ± SD (n=6).

This note sets out measurements from patent publication US10981926B2 (Janssen Pharmaceutica NV, priority 2016, dated 2021).

Where two headings read alike, the source gives them in different places.

Broadly, the IC50 is the concentration that gives 50% inhibition. Usually Emax stands for the size of the effect at its maximum, as opposed to the concentration needed. A word on the TGI: it is how far tumour growth fell short of that in controls. Lower therefore signals little slowing of growth.

Chain of AR W741C (P10275 whole entry W742C): as the sequence (P10275 whole entry L702H) above, with H702L, W742C counted along it
T1 sequence (P10275 whole entry F877L): as the sequence (P10275 whole entry L702H) above, with H702L, F877L counted along it

`N#Cc1ncc(N2C(=O)C3(CCC3)N(c3ccc(OC4CCNCC4)nc3)C2=S)cc1C(F)(F)F` [Cpd 43, 5-[5-oxo-8-[6-(4-piperidyloxy)-3-pyridyl]-7-thioxo-6,8-diazaspiro[3.4]octan-6-yl]-3-(trifluoromethyl)pyridine-2-carbonitrile]: in test [1] (antagonist mode, pIC50 = −Log10(IC50 in Molar)), the “LNCaP-AR-F876L ANT pIC50” value came out at 7.43. Also, the “LNCaP-AR-F876L ANT MAX % Inh” value in test [1] (maximum % inhibition of R1881 control response over the tested concentration range) stood at 100.0%. Besides, the EC50 in test [2] (agonist mode, pEC50 = −Log10(EC50 in Molar), read-out: LNCaP-AR-F876L AG pEC50 (converted)) was over 15.1 µM; at AR T877A (HepG2, agonist mode, 48 hours, read-out: Agonism EC50, AR construct T877A), 2.29 µM; on AR W741C (HepG2, agonist mode, 48 hours, read-out: Agonism EC50, AR construct W741C), 2.83 µM. In test [2] (maximum % stimulation (agonist response) over the tested concentration range), the “LNCaP-AR-F876L AG MAX % Stim” value turned out to be 0.1%. The IC50 in the test on LNCaP WT stood at 0.435 µM; on AR L701H (HepG2, antagonist mode, 90 pM R1881, 48 hours, read-out: Antagonism IC50, AR construct L701H), 10 µM; at AR T877A (HepG2, antagonist mode, 90 pM R1881, 48 hours, read-out: Antagonism IC50, AR construct T877A) it was 6.81 µM; at AR W741C (HepG2, antagonist mode, 90 pM R1881, 48 hours, read-out: Antagonism IC50, AR construct W741C), 12.3 µM. Besides, the Emax on AR L701H (HepG2, agonist mode, relative to R1881, read-out: Agonism % Emax, AR construct L701H) was 0%; on AR L701H (HepG2, antagonist mode, maximal inhibition, read-out: Antagonism % Emax, AR construct L701H) it was 90%; at AR T877A (HepG2, agonist mode, relative to R1881, read-out: Agonism % Emax, AR construct T877A) it was 10%; at AR T877A (HepG2, antagonist mode, maximal inhibition, read-out: Antagonism % Emax, AR construct T877A), 80%; at AR W741C (HepG2, agonist mode, relative to R1881, read-out: Agonism % Emax, AR construct W741C), 0%; at AR W741C (HepG2, antagonist mode, maximal inhibition, read-out: Antagonism % Emax, AR construct W741C), 85%. Also, in test [3] (setting [4]), the “ASO Organ Growth (% of TP control) SVCG” value is recorded as 26.0 ± 17.8 % of TP control. Besides, the “ASO Organ Growth (% of TP control) VP” value in test [3] (setting [4]) is reported as 24.1 ± 48.1 % of TP control. Besides, the “Reduction in ASO versus TP control” value in test [3] (all 5 organs, p≤0.05, 30 mg/kg) is “significant reduction”. For the same compound, the TGI is 91% (n = 9) with LNCaP SRαF876L cells (30 mg/kg) and 87% (n = 10) in the test on LNCaP SRαF876L cells (50 mg/kg).
